Reference: ChEMBL document CHEMBL1201862, “PubChem BioAssay data set” (2004)
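Method: 48-hour compound exposure of cells in 96-well plates, five concentrations, linear interpolation of endpoints. At the GI50, growth is halved.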 Calls of active or inactive are those of the source. Cut-off read from the data, not from the text of the source: active = GI50 up to about 1.1 µM and inactive = higher.

Experiments:
Assay in all cases: inhibition of tumour cell growth, NCI panel, 48 h
HCT-15 = tested on: HCT-15
OVCAR-5 = tested on: OVCAR-5
KM12 = tested on: KM12
HOP-92 = tested on: HOP-92
RPMI-8226 = tested on: RPMI-8226
NCI-H23 = tested on: NCI-H23
MCF7 = tested on: MCF7
SNB-19 = tested on: SNB-19
HCC 2998 = tested on: HCC 2998
SK-MEL-5 = tested on: SK-MEL-5
NCI-H226 = tested on: NCI-H226
UO-31 = tested on: UO-31
HOP-62 = tested on: HOP-62
A549 = tested on: A549
SN12C = tested on: SN12C
OVCAR-8 = tested on: OVCAR-8
NCI-H460 = tested on: NCI-H460
COLO 205 = tested on: COLO 205
CCRF-CEM = tested on: CCRF-CEM
SF-539 = tested on: SF-539

| Compound | GI50 (HCT-15) | GI50 (OVCAR-5) | GI50 (KM12) | GI50 (HOP-92) | GI50 (RPMI-8226) | GI50 (NCI-H23) | GI50 (MCF7) | GI50 (SNB-19) | GI50 (HCC 2998) | GI50 (SK-MEL-5) | GI50 (NCI-H226) | GI50 (UO-31) | GI50 (HOP-62) | GI50 (A549) | GI50 (SN12C) | GI50 (OVCAR-8) | GI50 (NCI-H460) | GI50 (COLO 205) | GI50 (CCRF-CEM) | GI50 (SF-539) |
| --- | --- | --- | --- | --- | --- | --- | --- | --- | --- | --- | --- | --- | --- | --- | --- | --- | --- | --- | --- | --- |
| Nc1c(S(N)(=O)=O)cc(S(N)(=O)=O)cc1S(N)(=O)=O | > 100 µM | > 100 µM (inactive) | > 100 µM (inactive) | > 100 µM (inactive) | > 100 µM (inactive) | > 100 µM (inactive) | > 100 µM (inactive) | > 100 µM (inactive) | > 100 µM (inactive) | > 100 µM (inactive) | > 100 µM (inactive) | > 100 µM (inactive) | > 100 µM (inactive) | > 100 µM (inactive) | > 100 µM (inactive) | > 100 µM (inactive) | > 100 µM (inactive) | > 100 µM (inactive) | – | – |
| CC1(O)/C(=N/O)CC2CC1C2(C)C (stereo not drawn) | > 100 µM | > 100 µM (inactive) | > 100 µM (inactive) | > 100 µM (inactive) | > 100 µM (inactive) | > 100 µM (inactive) | > 100 µM (inactive) | > 100 µM (inactive) | > 100 µM (inactive) | > 100 µM (inactive) | > 100 µM (inactive) | > 100 µM (inactive) | – | > 100 µM (inactive) | > 100 µM (inactive) | > 100 µM (inactive) | > 100 µM (inactive) | > 100 µM (inactive) | > 100 µM (inactive) | – |
| Cc1cc(C)n(CN(Cn2nc(C)cc2C)C2CCCCC2)n1 | 20.6 µM | 22.9 µM (inactive) | 21.2 µM (inactive) | 28.8 µM (inactive) | 18.6 µM (inactive) | 24 µM (inactive) | 32.6 µM (inactive) | 85.1 µM (inactive) | 14.6 µM (inactive) | 31.2 µM (inactive) | – | 20.8 µM (inactive) | 31.3 µM (inactive) | 66.2 µM (inactive) | 27.5 µM (inactive) | 25.7 µM (inactive) | 61.8 µM (inactive) | 18.1 µM (inactive) | 19 µM (inactive) | 15.7 µM (inactive) |
| O=C(Nc1ccccc1)N(CCCCN(Cc1ccccc1)C(=O)Nc1ccccc1)Cc1ccccc1 | > 100 µM | > 100 µM (inactive) | > 100 µM (inactive) | > 100 µM (inactive) | > 100 µM (inactive) | > 100 µM (inactive) | 92 µM (inactive) | 38 µM (inactive) | > 100 µM (inactive) | > 100 µM (inactive) | > 100 µM (inactive) | 40 µM (inactive) | > 100 µM (inactive) | 28.8 µM (inactive) | > 100 µM (inactive) | > 100 µM (inactive) | > 100 µM (inactive) | > 100 µM (inactive) | > 100 µM (inactive) | – |
| O=C1CC(=O)n2cnc3cccc(c32)N1 | > 100 µM | > 100 µM (inactive) | > 100 µM (inactive) | > 100 µM (inactive) | > 100 µM (inactive) | > 100 µM (inactive) | > 100 µM (inactive) | > 100 µM (inactive) | – | > 100 µM (inactive) | > 100 µM (inactive) | > 100 µM (inactive) | > 100 µM (inactive) | > 100 µM (inactive) | > 100 µM (inactive) | > 100 µM (inactive) | > 100 µM (inactive) | > 100 µM (inactive) | > 100 µM (inactive) | > 100 µM (inactive) |
